Assay [1] concerns the target T1, Thromboxane Synthase (TXA2 Syn.) (Homo sapiens, UniProt P24557).
T1 construct: microsomal fractions from human platelets as enzyme source; from tissue; host or cells: microsomal fractions from human platelets
T1 sequence (P24557 1-533): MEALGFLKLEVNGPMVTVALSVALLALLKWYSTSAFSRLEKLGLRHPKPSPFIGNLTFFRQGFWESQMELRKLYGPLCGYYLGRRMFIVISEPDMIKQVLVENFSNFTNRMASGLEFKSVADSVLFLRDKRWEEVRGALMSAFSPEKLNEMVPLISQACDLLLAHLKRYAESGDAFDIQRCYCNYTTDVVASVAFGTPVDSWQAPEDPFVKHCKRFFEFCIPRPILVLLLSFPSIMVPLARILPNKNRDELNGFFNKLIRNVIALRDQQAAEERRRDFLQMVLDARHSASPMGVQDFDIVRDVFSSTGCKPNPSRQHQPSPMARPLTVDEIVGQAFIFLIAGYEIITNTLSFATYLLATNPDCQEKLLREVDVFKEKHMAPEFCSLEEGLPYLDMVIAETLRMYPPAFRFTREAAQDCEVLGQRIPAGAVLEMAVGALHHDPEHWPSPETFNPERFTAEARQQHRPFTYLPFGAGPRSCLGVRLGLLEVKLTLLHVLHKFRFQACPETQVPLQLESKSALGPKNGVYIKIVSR
Description: TXA2 Synthesis Inhibition (thromboxane synthase, microsomal fractions from human platelets). It is filed as biochemical. The note with it: human platelet microsomes, 10 μM 14C-PGH2, 22°, 2 minutes. As for the experimental part:
Thromboxane synthase inhibitory activity is measured by following the conversion of ^14 C-[…] using microsomal fractions from human platelets as enzyme source. In the aqueous incubation medium. The TXA2 decomposes rapidly into TXB2 . The amount of TXA2 syn. is adjusted so that under the conditions of the assay approximately 80-90% of the substrate. PGH2, is converted to product in control tubes. To prepare ^14 C-PGH2, ^14 C-AA(50-60mCi/mmole; Rose Chem.) is incubated with sheep seminal vesicular gland microsomes for 1.5 min. at 37° and then the ^14 C-PGH2 is extracted with diethylether, purified on columns of Sephadex LH-20 or silicic acid, and stored in acetone at -70° C. Incubations are done as follows. Sufficient ^14 C-PGH2 to yield a final substrate concentration of 10 μM ( 30,000 cpm) is added to the incubation tubes and then the acetone is removed under nitrogen. The tubes are placed in an ice bath and then 215 μl of ice cold phosphate buffered saline, 10 μof ethanol (control) or of test drug in ethanol, and 25 μl of the microsomal suspension are added with mixing in that order as rapidly as possible. The tubes are incubated at 22° for 2 minutes, the reaction is stopped and then the radioactive products and the unconverted PGH2 are extracted and analyzed by thin layer chromatography. The amount of ^14 C-PGH2 converted to products is analyzed by thin layer chromatography. The amount of ^14 C-PGH2 converted to products was used as a measure of TXA synthase activity. Inhibitors were tested initially at a concentration of 100 μM.

Assay [2] deals with PAF-Induced Platelet Count Decrease. Description: PAF-Induced Platelet Count Decrease. It is filed as in vivo, guinea pig. The following applies: for inhibition in vivo at 3 mg/kg: Cavia porcellus, Platelet, 0.25 h, iv, 15 minutes pretreatment time, read-out: PAF-Induced Platelet Count Decrease % Inhibition, i.v. As for the experimental part: Male Hartley guinea pigs weighing between 500 and 900 grams were fed standard guinea pig chow and tap water ad libitum. PAF was solubilized in ethanol and stored as a 2 mM stock solution at -70° C. The stock solution of PAF was diluted to […] in Tris buffer pH 7.4 and 0.1% BSA for all experiments.
Guinea pigs were anesthetized with urethane (1.6 g/kg, i.p.). A catheter (PE50) was introduced into the right carotid artery for withdrawing blood. A second catheter PE10) was introduced into the jugular vein for injecting drugs and for administering the PAF challenge (75 ng/kg, i.v.). A control blood sample was obtained and platelets were counted in a whole blood platelet analyzer. PAF was then given and blood samples were taken 15, 30, and 60 seconds after the challenge for platelet counts. Fifteen minutes later, selected concentrations of the test compound were solubilized in DMSO and injected intravenously into a group of 4-6 animals. Only one concentration of the test drug was used in each animal group. Fifteen minutes after drug injection, blood samples were taken before and 15, 30, and 60 sec after the PAF challenge, and analyzed for platelet number.
Animals were anesthetized with sodium pentobarbital (35 mg/kg. i.p.) and the carotid artery and jugular vein were cannulated as described above. The cannulae were exteriorized at the base of the neck and the animals were allowed to recover. Conscious, unrestrained guinea pigs which were allowed to recover from surgery for at least 18 hours were used in the experiments. The animals were challenged two times with PAF (120 ng/kg, i.v.); the first to establish a consistent response to PAF and the second to serve as a control from the PAF challenge. Blood samples were taken before and 15, 30, and 45 seconds after PAF challenge and platelets were counted. Thirty minutes after the control PAF challenge, the animals were orally dosed with either gum acacia or the test compound. Animals were then challenged with PAF at 1, 3, 5, and 24 hours after the administration of the drug.
The % change, i.e., the difference in platelet number before and after PAF challenge was calculated by: [formula] The % activity of drug was then determined by
Statistical significance (p≤0.05) of the difference between the mean PAF control and mean drug treated activity was determined with the pared Students's t-test.

The target in assay [3] is T2, PAF binding, dog platelets (Canis lupus familiaris, UniProt A0A8I3NSH0).
T2 sequence (A0A8I3NSH0 1-343): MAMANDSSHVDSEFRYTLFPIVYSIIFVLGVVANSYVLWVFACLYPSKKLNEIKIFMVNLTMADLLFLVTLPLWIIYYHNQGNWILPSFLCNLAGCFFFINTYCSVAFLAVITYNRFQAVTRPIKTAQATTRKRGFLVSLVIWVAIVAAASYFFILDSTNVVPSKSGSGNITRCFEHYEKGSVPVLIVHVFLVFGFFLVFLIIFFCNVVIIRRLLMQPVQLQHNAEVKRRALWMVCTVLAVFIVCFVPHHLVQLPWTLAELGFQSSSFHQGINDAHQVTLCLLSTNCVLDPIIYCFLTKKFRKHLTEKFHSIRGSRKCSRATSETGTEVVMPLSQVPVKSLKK
Description: PAF Binding Assay (3H-PAF binding to washed dog platelets). The following applies: 10 minutes at room temperature.
Description: The binding assay was performed in 400 μl polyethylene microcentrifuge tubes (Beckman) containing 50 μl of an oil mixture of 2 parts Siliconol AR200 (Serva): 1 part Silicone Fluid (Arthur H. Thomas). Buffer, standards, or analogs 150 μl total volume) were added to the tubes. Radiolabelled ^3 H-PAF (50 μl) was then added to the tubes. The reaction was started by the addition of 50 μl of dog platelets (2×10^7 platelets). The tubes were capped, inverted several times to mix, and incubated for 10 minutes at room temperature. The platelets were separated from the incubation mixture by centrifuging 1 minute in a Beckman Microfuge B centrifuge. The tip of the microfuge tube was cut off, and the platelets were washed out of the tip with 200 μl of 50% methanol (Burdick and Jackson). Aquasol (NEN, 10 ml) was added and the radioactivity in the samples was determined using an LS 8100 Beckman liquid scintillation counter linked to a Techtran tape recorder. Data was processed through an in-house computer system. Alternatively, radioactivity was determined using a Searle Mark III liquid scintillation counter linked to a Iso-Data microprocessor.
Blood was collected from anesthesized or unanesthesized dogs into 5ml plastic centrifuge tubes containing 3.8% sodium citrate as the anticoagulant (1 volume of citrate/9 volumes of blood). The red cells were removed by centrifugation for 15 minutes at 600 rpm (100-125 g) at room temperature. An aliquot of the supernatant platelet rich Plasma (PRP) was saved for cell counting and the remainder was acidified to pH 6.5 with 0.15M citric acid. The platelet pellet was obtained after a 10 minute centrifugation at 2000 rpm (1000 g) at room temperature. Washed platelets were prepared by resuspending the platelet pellet once with PBS containing 1 mM EDTA, centrifuging as noted, and then resuspending the platelets in 0.1% BSA-PBS. An aliquot of the washed platelets was counted, platelets used for binding assays were diluted to 2×10^7 platelets/assay tube (4×10^8 platelets/ml).

Assay [4] has as its system PAF-Induced Bronchoconstriction. Description: PAF-Induced Bronchoconstriction Assay. It is filed as in vivo, guinea pig. The following applies: Cavia porcellus; for inhibition in vivo at 1 mg/kg: 1 min, 1 mg/kg iv, 1 minute pretreatment; for inhibition in vivo at 50 mg/kg: po, 2 hours pretreatment. As for the experimental part:
The in vivo ability of compounds to inhibit PAF-induced bronchoconstriction in guinea pigs was assessed by the intravenous and oral routes of administration. The intravenous technique utilized male guinea pigs (Hartley strain, Charles River) weighing 400-600 g. Animals were anesthetized with urethane (2 g/kg) intraperitoneally and a polyethylene cannula was inserted into the jugular vein for intravenous drug administration. Tracheal pressure ([…]) was recorded from a Statham pressure transducer (P 32 AA). Propranolol was administered 5 minutes prior to challenge with PAF. Two minutes later spontaneous breathing was arrested with succinylcholine chloride (1.2 mg/kg) administered intravenously, and the animals were ventilated with a Harvard (Model 680) small animal respirator set at 40 breaths/min and 4.0 cc stroke volume. Control vehicle or test drug was administered through the cannula into the jugular vein 1 minute before the animals were challenged with a maximum constrictory dose of PAF (1.0 μg/kg) given intravenously. The change in tracheal pressure was averaged for four control and four drug-treated animals and percent inhibition was calculated.
For determination of oral activity, animals were dosed with test compound or vehicle two hours prior to challenge with PAF (1.0 μg/kg, i.v.).
The change in tracheal pressure is determined by subtracting the steady state baseline achieved after administration of succinylcholine from the peak bronchoconstriction seen after challenge with PAF. The mean change in tracheal pressure is calculated for each test compound and compared to the mean change in tracheal pressure for the control animals to give the percent inhibition of bronchoconstriction. The standard error is calculated as the standard error of the mean.

Assay [5] relates to PAF-Induced Platelet Count Decrease. Put plainly: PAF-Induced Platelet Count Decrease. It is filed as in vivo, guinea pig. The note with it: 30 mg/kg, 2 hours, pretreatment.

Each structure is given as a SMILES string.

As to `Cc1ccc(-c2ccc(C(=O)NC(C)CCCc3cccnc3)cc2)cc1C` (racemic) [(rac.)-3',4'-Dimethyl-N-[1-methyl-4-(3-pyridinyl)butyl][1,1'-biphenyl]-4-carboxamide], the half-inhibitory concentration (IC50) in assay [1] was 100 to 1000 nM; in assay [3], 200 nM. For the same molecule, in assay [2], the inhibition in vivo at 3 mg/kg amounted to 12%.

With `Cc1ccc(-c2ccc(C(=O)NCCCCCCc3cccnc3)cc2)cc1C` [3',4'-Dimethyl-N-[6-(3-pyridinyl)hexyl][1,1'-biphenyl]-4-carboxamide], the 50% inhibitory concentration (IC50) in assay [1] is 600 nM; in assay [3], 450 nM. Besides, the inhibition in vivo at 3 mg/kg in assay [2] is 27%.

As for `COc1ccc(-c2ccc(C(=S)NCCCCc3cccnc3)cc2)cc1OC` [3',4'-Dimethoxy-N-[4-(3-pyridinyl)butyl][1,1'-biphenyl]-4-carbothioamide], the IC50 in assay [1] worked out at 225 nM. In addition, the “PAF-Induced Platelet Count Decrease % Inhibition, po” value in assay [2] (100 mg/kg, po, 3 hours, pretreatment) stood at 53%. Also, the inhibition in vivo at 3 mg/kg in assay [2] is 15%.

Regarding `COc1cccc(-c2ccc(C(=O)NCCCCc3cccnc3)cc2)c1` [3'-Methoxy-N-[4-(3-pyridinyl)butyl][1,1'-biphenyl]-4-carboxamide], the 50% inhibitory concentration (IC50) in assay [1] stood at 25 nM; in assay [3] it was 280 nM. Besides, in assay [4], the inhibition in vivo at 1 mg/kg worked out at 70 ± 10%. In addition, the inhibition in vivo at 50 mg/kg in assay [4] came to 55 ± 17%.

With `O=C(NCCCCc1cccnc1)c1ccc(-c2cccc(O)c2)cc1` [3'-Hydroxy-N-[4-(3-pyridinyl)-butyl][1,1'-biphenyl]-4-carboxamide], the concentration for half-maximal inhibition (IC50) was under 100 nM in assay [1] and 300 nM in assay [3].

`Cc1ccc(-c2ccc(-c3nnnn3CCCCc3cccnc3)cc2)cc1C` [3-[4-[5-(3',4'-Dimethyl-[1,1'-biphenyl]-4-yl)-1H-tetrazol-1-yl]butyl]pyridine]: the half-inhibitory concentration (IC50) in assay [1] is over 1000 nM; in assay [3], 800 nM. Moreover, the inhibition in vivo at 1 mg/kg in assay [4] stood at 57 ± 4%.

On to `COc1ccc(-c2ccc(C(=S)NC(C)CCCc3cccnc3)cc2)cc1OC` (racemic) [rac.-3',4'-Dimethoxy-N-[1-methyl-4-(3-pyridinyl)butyl][1,1'-biphenyl]-4-carbothioamide], for which the figures for the half-maximal inhibitory concentration (IC50) in assay [1] and in assay [3] were 100 to 1000 nM and 60 nM, respectively. The inhibition in vivo at 1 mg/kg in assay [4] was determined as 86 ± 7%. Besides, the inhibition in vivo at 50 mg/kg in assay [4] is 37 ± 9%. Further, the inhibition in vivo at 3 mg/kg in assay [2] amounted to 24%. For the same molecule, the “PAF-Induced Platelet Count Decrease % Inhibition, po” value in assay [5] amounted to 48%.

For the molecule `Cc1ccc(-c2ccc(-c3nnnn3CCCCCCc3cccnc3)cc2)cc1C` [3-[6-[5-(3',4'-Dimethyl-[1,1'-biphenyl]-4-yl)-1H-tetrazol-1-yl]hexyl]pyridine], the 50% inhibitory concentration (IC50) was 100 to 1000 nM in assay [1] and 200 nM in assay [3]. Further, the inhibition in vivo at 1 mg/kg in assay [4] came out at 18 ± 13%. For the same molecule, the inhibition in vivo at 3 mg/kg in assay [2] came out at 0%.

With `Cc1ccc(-c2ccc(C(=O)NCCCCc3cccnc3)cc2)cc1C` [3',4'-Dimethyl-N-[4-(3-pyridinyl)butyl][1,1-biphenyl]-4-carboxamide], the half-inhibitory concentration (IC50) was determined as 125 nM in assay [1] and 700 nM in assay [3].

For the molecule `COc1cccc(-c2ccc(C(=S)NC(C)CCCc3cccnc3)cc2)c1` (racemic) [(rac.)-3'-Methoxy-N-(1-methyl-4-(3-pyridinyl)butyl][1,1'-biphenyl]-4-carbothioamide], the half-inhibitory concentration (IC50) in assay [1] was 100 to 1000 nM; in assay [3], 120 nM. Besides, in assay [4], the inhibition in vivo at 1 mg/kg came out at 16 ± 14%. Besides, the inhibition in vivo at 3 mg/kg in assay [2] turned out to be 6%.

Regarding `O=C(NCCCCc1cccnc1)c1ccc(-c2ccccc2)cc1` [N-[4-(3-Pyridinyl)butyl]-[1,1'-biphenyl]-4-carboxamide], in assay [1], 100 nM corresponded to half-maximal inhibition (IC50). Also, in assay [4], the inhibition in vivo at 1 mg/kg is 42 ± 7%.

For the origin of these results see patent US4916145A, “Substituted n-[(pyridyl)alkyl]aryl-carboxamide” (Hoffmann-La Roche Inc., priority 1987, dated 1990).
